From US5374623A, “Cysteine protease inhibitors effective for in vivo use” (Prototek, Inc., priority 1992, dated 1994)

Key:
bone resorption = assay: In vivo bone resorption by urinary 14C-tetracycline excretion in rats
Protocol: Treatment of Osteo Arthritis with Mu-Phe-HPhe-O-Ph. The skeletons of young growing rats were radioactively labelled by injections with ^14 C-tetracycline over a 10 day period. The amount of bone resorption was then determined each day as the amount of radioactivity excreted in the urine. After 10 days of control excretion, test compounds were administered for three days subcutaneously and their effects on the daily excretion of tetracycline were determined. Tested compounds were dissolved in DMSO/PEG at a concentration of 25 mg/ml and were injected once per day subcutaneously in a volume of 2 ml/kg. Treatment of Osteo Arthritis with Mu-Leu-HPhe-O-Ph. The skeletons of young growing rats were radioactively labelled by injections with ^14 C-tetracycline over a 10 day period. The amount of bone resorption was then determined each day as the amount of radioactivity excreted in the urine. After 10 days of control excretion, test compounds were administered for three days subcutaneously and their effects on the daily excretion of tetracycline were determined. Tested compounds were dissolved in DMSO/PEG at a concentration of 25 mg/ml and were injected once per day subcutaneously in a volume of 2 ml/kg.

[1] = test system: DBA/Lac mice injected with type II chick collagen; assay: Type II collagen arthritis in mice, oral 3-25 mg/kg/day (Example 14); assay type: in vivo; conditions: gavage 3 to 25 mg/kg/day in phosphate buffered saline, day 21 to day 35; scale 0-3
Protocol: DBA/Lac mice were injected with 200 μg of type II chick collagen emulsified in Complete Freund's Adjuvant on day 0 and on day 21. Mu-Phe-HPhe-O-Ph was suspended in phosphate buffered saline and administered by gavage from day 21 until sacrifice at day 35. Doses of between 3 mg/kg/day and 25 mg/kg/day were used, with the daily dosage being held constant over time for each test. The severity of joint inflammation was evaluated grossly at seven day intervals beginning on day 21. The effect of oral administration of Mu-Phe-HPhe-O-Ph on the severity of bone lesions in adjuvant-induced arthritis was determined by evaluating osseous mineralization, periostat proliferation, bone erosion, joint space narrowing and osseous fragmentation. All lesions were scored on a scale of 0 (normal architecture) to 3 (severe or marked changes). Values calculated were mean values ±1 std. error of the mean.

experimental gingivitis = assay: Experimental gingivitis in human subjects; assay type: in vivo; conditions: twenty human subjects, inhibitor placed at test sites and sealed with Coe-pak for a week, blind, placebo control
Source text: Treatment of Gingivitis with Mu-Phe-HPhe-O-Ph. The effect of the inhibitor on gingival inflammation was studied by investigating its ability to prevent the development of experimental gingivitis. Twenty human subjects with healthy gingiva and no periodontal disease were recruited. The subjects received oral hygiene instruction and scaling prior to baseline. The test sites were the mesibuccal crevices on the upper first and second molars and premolars (bicuspids). Acrylic shields were made to cover the gingival margins of these teeth and were worn during oral hygiene to prevent brushing of the test and control sites. During the test period of three weeks the subjects were told to brush only the lower teeth and upper anteriors and to ear the shields during brushing. The left side was used as the test side and the right was the control side in 10 subjects. The sides were reversed in the other 10 subjects so the subjects could act as their own controls. Thirty second GCF samples were taken prior to clinical measurements at baseline and at 1, 2, 3 and 4 weeks. These were assayed for cathepsins B and L-like activities. Clinical measurements of gingival index (GI), gingival bleeding index (GBI) and plaque index (PLI) were taken at test and control sites at zero, one, two, three and four weeks. […]

Which “inhibition of bone resorption in vivo as measured by tetracycline excretion” value (bone resorption; subcutaneous once per day for three days, 25 mg/ml in DMSO/PEG, 2 ml/kg) does the source give for `O=C(O)Cc1ccccc1OCC(=O)[C@H](CCc1ccccc1)NC(=O)[C@H](Cc1ccccc1)NC(=O)N1CCOCC1` [Mu-Phe-HPhe-O-Ph, (4-morpholinylcarbonyl)-L-phenylalanyl-L-homophenylalanyl-(2-carboxymethyl)phenoxymethyl ketone] here?
Its value is “as great as that of a maximal dose of calcitonin”.

And the “time of maximum effect after dosing commenced” value (bone resorption; subcutaneous once per day, 25 mg/ml, 2 ml/kg)?
Its value is 24 h.

And the “findings at the sites of injection at end of experiment” value (bone resorption; subcutaneous, DMSO/PEG, three days, histology: inflammation of subcutaneous fat, tissue necrosis)?
The value was “lesions were visible at the sits of injection”.

What about the “bone lesion severity values vs control animals” value [1] of the same molecule?
Its value is “significantly (p<0.05) lower than the values of control animals”.

And the “GI, GBI, PLI and cysteine proteinase levels at test vs control sites” value (experimental gingivitis)?
Its value is “reduced all parameters tested at the test sites”.
